Experiments:
Arabidopsis [1] = assay: Kill curves for individual osmotic stress agents; format: in vivo; conditions: kill curve experiments, each stress agent individually in the media
Text: The standardization of growth conditions and generation of kill curves for various osmotic stress agents individually was done before the development of quad stress assay conditions. […] As there were four stress agents being used together, a quarter of each together in a solution would denote 100% stress or an osmotic pressure of 1.23 MPa. Therefore the following concentrations of each component were used in “100% quad media”.
Assay Conditions: Seeds were surface sterilized and stratified for 48 hrs. About 100 seeds were inoculated in one plate and cultured in a growth chamber programmed for 16 h of light at 22° C. temperature and 50% relative humidity. Germination was scored as the emergence of radicle. Assay Plan: A 6-day assay and an extended 10-day assay were done to test the seeds from the 48 transgenic Arabidopsis lines for osmotic stress tolerance. • Day 0—Surface sterilized seeds of different drought leads and stratify. • Day 2—Inoculated onto quad media. • Day 4—Counted for germination (48 hrs). • Day 5—Counted for germination (72 hrs)/Take pictures or Scan plates from 48 hrs to 96 hrs. • Day 6—Counted for germination (96 hrs). • For the extended 10-day assay, germination was scored from 48 hrs to 96 hrs. On day 7, 8, 9 and 10, the emerged seedlings were checked for greenness and four leaf stage. Preparation of Media • Germination medium (GM or 0% quad media) for 1 liter: […]

Arabidopsis [2] = assay: Paraquat tolerance assay, dose effect of paraquat on growth; format: in vivo
Experimental: In light-exposed plants, paraquat accepts electrons from photosystem I and transfers them to molecular oxygen. In this manner, destructive reactive oxygen species are produced. A range of paraquat concentrations were tested in Arabidopsis. […] Compared to wild-type plants, mutant plants have larger size and less-bleached leaves under these conditions. A quantitative assay based on leaf area and color (similar to low N plate analysis) can be easily integrated into this screen.
The dose effect of paraquat on Arabidopsis growth was determined. […] Therefore this concentration was used for paraquat resistance assay. […] Tsu can serve as a positive control for this assay.
Seeds were surface sterilized and stratified for 96 hrs. 18 seeds for each tested line and Col-0 were inoculated in one plate, then cultured in a growth chamber programmed for 16 h of light at 22° C. temperature, 150 μE light intensity and 50% relative humidity. Growth phenotype was scored based on leaf size and color at 7-day-after inoculation.
Seeds were inoculated on a square paraquat plate. 18 seeds of test lines and 18 seeds of Col-0 were evenly put on the plate side by side. Plates were then cultured in the chambers set at 16 h of light at 22° C. temperature, 150 μE light intensity and 50% relative humidity.

| SMILES | lethal concentration (Arabidopsis [1]) [mM] | effect on Col-0 plants (Arabidopsis [2]; 0.03 μM paraquat) | concentration that greatly inhibited Arabidopsis growth (Arabidopsis [2]; 7-day growth on plates) [µM] | concentration at which the effect on growth can be detected (Arabidopsis [2]; in vivo) [µM] | concentration giving dose-dependent growth inhibition and leaf bleach (Arabidopsis [2]; range of paraquat concentrations tested in Arabidopsis) [µM] |
| --- | --- | --- | --- | --- | --- |
| OC[C@@H](O)[C@@H](O)[C@H](O)[C@H](O)CO [mannitol] | 500 | – | – | – | – |
| [Cl-].[Na+] [NaCl, sodium chloride] | 150 | – | – | – | – |
| OC[C@@H](O)[C@@H](O)[C@H](O)[C@@H](O)CO [sorbitol] | 500 | – | – | – | – |
| C[n+]1ccc(-c2cc[n+](C)cc2)cc1 [paraquat] | – | plants died one-week-after germination | 0.03 | 0.01 | 0.01 to 0.1 |
